Experimental data published in patent publication US20060247156A1, “Use of neuropeptides for ligament, cartilage, and bone healing” (priority 2004, published 2006).
Where “and” joins values, the source holds several entries; their conditions need not be identical. Equal entries are not always repeated.

How the values were obtained:
healing MCL = experiment: Local neuropeptide delivery to normally innervated healing MCL: mechanical testing, histomorphology; type: in vivo, rat; conditions: for histomorphology (H&E) of healing MCL: Example 7, two weeks of healing; for failure force / ultimate stress: Example 7: normally innervated rats, bilateral MCL rupture, mini-osmotic pump (SP 75, CGRP 10, NPY 65, VIP 100 pg/100 μl)
Protocol: Animal Model and Surgery: Forty female Wistar rats (200-250 g) were divided into five groups.
All rats underwent bilateral MCL rupture. Neuropeptides were then delivered ruptured MCLs unilaterally. Neuropeptide infused mini-osmotic pumps (Alzet Corp.) were implanted subcutaneously into the back of each rat. A small catheter running from the pump was run to an intramuscular space above the MCL and was secured.
Mechanical Testing: Mechanical testing was performed as described in Chapter 2. Briefly, animal hind limbs from all groups (n=5 for all groups) were disarticulated at the hip joint and stored at −80° C. until testing. On the day of testing, MCLs including intact femoral and tibial bone sections were excised for ex vivo testing. Ligament thickness and width was measured optically, and MCL area was estimated with elliptical geometry. For strain measurements, optical markers were placed onto the ligament tissue near the insertion sites. A small preload of 0.1N was applied to the ligaments in order to obtain a uniform starting point. The ligaments were then preconditioned to 1% strain for 10 cycles. After preconditioning, ligaments were pulled to failure at a rate of 10% per second.
Tissue displacement was obtained using video dimensional analysis using equations (1) and (2) supra. The mechanical properties that were examined in this study were maximum force, ultimate stress, strain at failure, elastic modulus, and area. Statistical analysis was performed using paired ttests to compare each treated MCL to its contralateral control (alpha=0.05).
Ligaments were immediately fixed in formalin fixative for three days at room temperature. Specimens were embedded in paraffin, sectioned (6 μm), mounted on slides, and stained with hematoxylin and eosin (H&E).

[1] = test system: bovine articular chondrocytes; experiment: Bovine chondrocytes glycosaminoglycan assay (DMMB); type: cell-based; conditions: Day 3 of treatment, individual wells
Protocol: (§1) Cartilage chunks were then digested at 37° C. in DMEM containing 0.05% hyaluronidase for 30 minutes, followed by 0.05% collagenase digestion overnight. The digests were filtered through 40-micron nylon mesh and centrifuged at 600×g for 20 minutes. The cell pellets were then resuspended in DMEM and counted using a hemacytometer.
(§2) Cells were plated at 1×10^5 cells/well in 12-well plates (n=9) for proteoglycan assays and at 2×10^4 cells/well in 96-well plates (n=16) for proliferation assays. The culture volumes were 1 ml/well in 12-well plates and 100 μl/well in 96-well plates.
(§3) The plates were incubated at 37° C. in a humidified CO2 incubator for 3 days to allow the cells to recover from the harvesting procedure.
(§4) On Day 3 of treatment, 20 μl of CellTiter 96® AQueous One Solution Cell Proliferation Assay (Promega Corporation, Madison, Wis.) was added to each well of the 96-well cultures for 60 minutes, and cells in the 12-well plates were digested with 0.125 units of papain/well overnight. After the 60-minute incubation, the absorbance of the color generated by the cells in the 96-well plates was measured at wavelength 490 nm.
Following papain digestion of the cultures in 12-well plates, the amount of glycosaminoglycan (representative of proteoglycans) in each well was measured using the dimethylmethylene blue (DMMB) dye-binding assay. The results were statistically analyzed and plotted.

[2] = test system: Bovine nucleus pulposus cells; experiment: Bovine nucleus pulposus (intervertebral disc) cell proliferation; type: cell-based; conditions: day 1, day 2, day 3
Protocol: Bovine calf spines and femoral condyles were obtained from a slaughterhouse and freshly transported to the laboratory. Nucleus pulposus tissue was carefully dissected, avoiding annular and endplate cartilage tissues, from each disc. Articular cartilage from femoral condyles was dissected in the same manner. […] Cells were harvested by overnight digestion with hyaluronidase and collagenase, followed by filtration. Cells were plated at a density of 1×10^5 cells/ml and incubated at 37° C. in 5% CO2 and 95% air in the presence of each neuropeptide or media only (control). At various time points in growth, cells were collected for proliferation and glycosaminoglycan (GAG) production assays. Varying concentrations of NPs were examined.
Well established colorimetric and luminescent assays (CellTiter 96® AQueous Non-radioactive Cell Proliferation and CellTiter-Glo® Luminescent Cell Viability Assays, Promega, Madison, Wis.) were used to quantify the effect of each NP on cell proliferation. In addition, corresponding cell cultures during growth were digested with papain to release glycosaminoglycans (GAGs). Dimethyl methylene blue (DMMB) colorimetric assays were used to quantify the amount of GAGs in each culture.
Multiple samples for test and control groups were performed simultaneously. Statistical analyses using one way analysis of variance (ANOVA) with large degrees of freedom (n=12 for GAG assays; n=24 for proliferation assays) were performed to establish the significance of differences between test groups and control groups for each day of growth in culture.
The effect of neuropeptides on intervertebral disc cell proliferation was examined in order to elucidate further the pathophysiology of degenerative disc disease. Bovine nucleus pulposus cells were incubated with the same neuropeptides.

[3] = test system: bovine articular chondrocytes; experiment: Bovine chondrocytes proliferation assay (CellTiter 96 AQueous One); type: cell-based; conditions: CGRP 100 pg/ml, NPY 50 ng/ml, SP 500 pg/ml, VIP 1 ng/ml
Protocol: as §1, §2, §3, §4

Substance	histomorphology (H&E) of healing MCL (healing MCL)	healed MCL strength relative to intact MCL strength (healing MCL; Example 7: SP, two weeks of healing)	failure force (healing MCL; two weeks of healing)	ultimate stress (healing MCL; two weeks of healing)	Glycosaminoglycan Assay ([1]; SP 500 pg/ml)	disc cell proliferation compared to controls ([2]; CGRP 10 ng/ml, NPY (mcg/ml, SP 5 mcg/ml))	proliferation of articular chondrocytes compared to controls (in words) [3]	Glycosaminoglycan Assay ([1]; VIP 1 ng/ml)	disc cell viability ([2]; VIP 100 ng/ml)
Substance P [SP]	greatly improved tissue alignment	60%	no change	13.4±8.9 MPa	8.6 μg/dish and 9.1 μg/dish and 8.373 μg/dish and 7.011 μg/dish and 6.556 μg/dish and 7.192 μg/dish and 7.238 μg/dish and 7.283 μg/dish and 8.01 μg/dish	stimulate disc cell proliferation	stimulate proliferation		
vasoactive intestinal peptide [VIP]	greatly improved tissue alignment		10.2±3.0 N	5.1±1.6 MPa			stimulate proliferation	7.419 μg/dish and 5.966 μg/dish and 6.874 μg/dish and 6.42 μg/dish and 6.965 μg/dish and 3.785 μg/dish and 6.147 μg/dish and 6.511 μg/dish and 8.328 μg/dish	negative influence
